Test results published in US20050239899A1, “Beta-secretase inhibitors” (priority 2002, published 2005).

Key:
[1] = target: T1, rhBACE (Homo sapiens, UniProt P56817); assay: Fluorescence BACE assay; format: biochemical; settings: EDANS/Dabcyl peptide substrate, pH 5, 2 hours at 37 C
T1 construct: purchased R&D systems 931-AS
Method: The inhibitory activity of the compounds of the invention was shown in an in vitro assay, namely a fluorescence BACE assay.
The assay was set up in triplicate wells of 96 well black plate. rhBACE was diluted to 1 unit/well in […] (PBS +0.5% Triton-X 100, pH 5). BACE enzyme (obtained from R&D systems (ca.No. 931-AS), reference: Vasser et al., 1999, Science 286, 735-741) was incubated with various concentrations of inhibitor compound (10 nM to 500 µM) for 5 min; Reaction was started by adding peptide substrate (obtained from BACHEM (cat. No. M-2470), reference: Ermolieff et al., Biochemistry 39 (2000) 12450-56) with EDANS/Dabcyl labels. After incubation for 2 hours at 37 C the results were read in fluoroplate reader at 355 nm/486 nm.

[2] = tested on: cells; assay: cellular assay (activity in cells); format: cell-based
Source text: As combined pharmacophore, for example, a combination of common pharmacophore for aspartyl proteases and a surface-based (surf2lead®) pharmacophore of the crystallized beta-secretase:OM922 complex can be used. For the common pharmacophore of the aspartyl proteases the active center was employed for generation of the pharmacophore. For the surf2lead approach the surface of the active center of the beta-secretase: OM922 complex crystallized with inhibitor was used for generation of the pharmacophore. A query for PHACIR screening was generated from a combination of the two pharmacophores. The compounds of the focused library identified by virtual screening then can be subjected to an in vitro assay, e.g. a fluorescence BACE assay, or a cellular assay in order to determine its possible inhibitory action.

T1 sequence (P56817 46-501): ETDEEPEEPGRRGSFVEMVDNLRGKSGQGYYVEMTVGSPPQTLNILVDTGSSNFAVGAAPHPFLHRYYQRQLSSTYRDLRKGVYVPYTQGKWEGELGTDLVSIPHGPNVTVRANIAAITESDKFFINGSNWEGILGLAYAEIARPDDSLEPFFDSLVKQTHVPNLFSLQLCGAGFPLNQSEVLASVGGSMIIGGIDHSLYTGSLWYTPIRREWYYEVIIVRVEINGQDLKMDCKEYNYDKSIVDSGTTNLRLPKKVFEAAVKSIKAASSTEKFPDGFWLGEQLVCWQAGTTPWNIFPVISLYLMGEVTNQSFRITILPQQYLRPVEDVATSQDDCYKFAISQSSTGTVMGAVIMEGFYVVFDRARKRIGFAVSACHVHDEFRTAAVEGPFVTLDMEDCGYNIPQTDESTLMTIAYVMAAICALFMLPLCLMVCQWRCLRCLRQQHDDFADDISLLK

Row | SMILES | IC50 [1] | activity in cells / cell permeability [2]
1 | O=[N+]([O-])c1cc(C(F)(F)F)cc([N+](=O)[O-])c1N/N=C/c1cc(Cl)cc(Cl)c1O [ID6] | 39.3 µM | –
2 | C=CCn1c(SCc2ccc(Cl)cc2)nc2sc3c(c2c1=N)CCCC3 [ID3] | 10 µM | especially cell-permeable active compounds
3 | Oc1c(Cl)cc(Cl)cc1/C=N/Nc1c(Cl)cncc1Cl [ID2] | 29 µM | –
4 | C/C(=N\OC(=O)c1c(-c2c(Cl)cccc2Cl)noc1C)c1ccccc1O [ID4] | 140 to 170 µM | –

The next lines start with results.

Row | IC50 [1] | SMILES | activity in cells / cell permeability [2]
5 | 45 µM | O=C(Nc1cc(-c2ccc(Cl)cc2)nn1-c1ccc(I)cc1)C1CCC1 [ID1] | –
6 | 14.4 µM | C/C(=N\Nc1ccccc1)c1cc(Cl)cc(Cl)c1O [ID7] | especially cell-permeable active compounds
7 | 53 µM | Oc1c(Cl)cc(Cl)cc1/C=N/Nc1ncnc2sc3c(c12)CCCC3 [ID5] | –
